Reference: patent US8097252B2, “Methods and compositions for administering therapeutic and diagnostic agents” (Immunomedics, Inc., priority 2003, dated 2012)
Starred links: 1 amine or outer side, 2 acyl side, 3 side chain; linkers in the order of their positions; H or OH if unused. Non-standard residues stand in square brackets, D forms with d. Residues, ends and D or L forms follow the SMILES beside them. Groups on a side chain read outwards from the residue. *: point of attachment. DTPA = O=C(O)CN(CCN(CC(=O)O)CC(=O)O)CCN(CC(=O)O)CC(=O)*; NH(2-(imidazol-4-yl)ethyl) = c1ncc(CCN*)[nH]1; Suc = O=C(CCC(=O)[*:2])[*:1]

What was measured:
B-cell lymphoma = assay: Therapy of B-cell lymphoma patient with internalization by cross-linking; assay type: in vivo
Method: A patient having B-cell lymphoma with extensive node involvement is infused intraveneously with a sterile, pyrogen-free solution containing a target dose of bispecific hA20Fab-679scFv prepared as described in U.S. application Ser. Nos. 09/337,756 and 60/360,229. After 24 hours, the patient then is infused intraveneously with a sterile, pyrogen-free PBS solution that contains a therapeutic dose of DTPA-Gln-Ala-Lys(HSG)-D-[I-131Tyr]-Lys(HSG)-NH2. After 24 hours the patient then is intraveneously infused with 50 mg of sterile, pyrogen-free PBS solution of bispecific hLL1IgG[734scFv]. […] This administration is illustrated schematically in FIG. 6-9.

[1] = Stability of 111In IMP 272 in fresh nude mouse serum; assay type: in vitro ADME; conditions: 37° C., 24 hr
Method: (§1) ^111InCl3 (30.4 μL) was added to 500 μL of DI H2O. This solution was added to the prepared vial of IMP 272 and allowed to sit for approximately 20 minutes at room temperature. An additional 600 μL of cold In Acetate Buffer (1.0×10^−4M InCl3, 0.5M NaOAc, pH 6.5) was then added to the same vial and allowed to sit for an additional 45 minutes. The total volume was 1130 μL with a molar quantity of […] of IMP 272 yielding a concentration of 8.777×10^−6M. After the labeling was completed, the peptide was tested for stability in fresh human and nude mouse serum over 24 hrs. The peptide was also tested for binding to humanized antibodies; m679×hMN14, and, m734×hMN14.
^111In IMP 272, 44 μL, was added to 400 μl fresh nude mouse serum. This was vortexed and placed under a constant temperature of 37° C. The peptide concentration for this mixture was 8.698×10^−7M.

[2] = Stability of 111In IMP 272 in fresh human serum; assay type: in vitro ADME; conditions: 37° C.
Method: as §1
^111In IMP 272, 60 μL, was added to 540 μL fresh human serum. This was vortexed and placed under a constant temperature of 37° C. The peptide concentration for this mixture was 8.777×10^−7M.

[3] = Biodistribution in nude mice bearing GW-39 xenografts (lock and chase); assay type: in vivo; conditions: mouse, tumor (GW-39 xenograft), iv, 76 ng, total radioactivity, 3 hrs post-IMP-272, assumption, read-out: amount in tumor
Method: To study the half-life of a pretargeted defined chemical substance (DCS), known as IMP-272 on a tumor, the following experiment is performed in nude mice bearing GW-39 human colorectal cancer xenografts. Animals receive three injections as follows: first injection of anti-CEA BS1.5HP diabody (hMN-14×679) followed 24 hours later with IMP-272, which is followed 3 hours later by the anti-In-DTPA F(ab′)2 antibody, 734. BS1.5HP is labeled with ^125I and the IMP-272 is labeled with ^111In. The synthesis and use of this diabody is disclosed in Clin. Cancer Res. 9:3886s-3896s (2003), and is herein incorporated in its entirety by reference. Known standard molecular biology methods were used to prepare the BS1.5HP
To test for maximum cross-linking of peptide on the surface of the tumor, the total protein dose of 734 F(ab′)2 injected ranges from 10 μg to 100 μg. Four groups of mice are administered 10 μCi ^125I-BS1.5HP (27 μg, 5.0×10^−10 moles) followed 24 hours later by 25 μCi ^111In-IMP-272 (5.0×10^−11 moles) for a bispecific:IMP-272 ratio of 10:1. IMP-272 is administered 3 hours before the administration of 734 F(ab′)2 to target the tumor and clear from the blood. […]
At the specified necropsy time, 5 animals are anesthetized, bled by cardiac puncture followed by cervical dislocation. […] Tissues is counted in a calibrated gamma counter for ^111In and ^125I. […]

Row | stability in mouse serum [1] | stability in human serum (conclusion) [2] | peptide state after incubation in human serum ([2]; 1 hour) | binding to HSG after incubation in human serum ([2]; 24 hr) | binding to one of the two HSG's compromised ([2]; 24 hr, size exclusion HPLC) | tissue uptake at 3 h [3] [%ID/g] | Compound | size of the lymphoma-involved nodes (B-cell lymphoma; CAT scans over the next few months) | localization and retention of I-131 in lymphoma involved nodes (B-cell lymphoma; radioimmunodetection)
1 | – | – | – | – | – | – | DTPA-Gln-Ala-Lys(HSG)-D-[I-131Tyr]-Lys(HSG)-NH2 | significant reduction | intensive localization and long retention
2 | stable | partially metabolized | intact | lost some of the binding to HSG | about 50% | ~20 | C[C@H](NC(=O)[C@H](CCC(N)=O)NC(=O)CN(CCN(CCN(CC(=O)O)CC(=O)O)CC(=O)O)CC(=O)O)C(=O)N[C@@H](CCCCNC(=O)CNC(=O)CCC(=O)NCCc1c[nH]cn1)C(=O)N[C@H](Cc1ccc(O)cc1)C(=O)N[C@@H](CCCCNC(=O)CNC(=O)CCC(=O)NCCc1c[nH]cn1)C(N)=O (111In complex, metal not drawn) [IMP 272, DTPA-Gln-Ala-Lys(HSG)-D-Tyr-Lys(HSG)-NH2] ({DTPA}-QAK([Gly-Suc-NH(2-(imidazol-4-yl)ethyl)])[dY]K([Gly-Suc-NH(2-(imidazol-4-yl)ethyl)])-NH2) | – | –
